{
  "source": "ChEMBL document CHEMBL1201862",
  "about": "“PubChem BioAssay data set” (2004)",
  "experiment_in_all_cases": "DTP human tumour cell line panel, 48 h",
  "key": {"786-0": {"tested_on": "786-0"}, "A498": {"tested_on": "A498"}, "A549": {"tested_on": "A549"}, "ACHN": {"tested_on": "ACHN"}, "BT-549": {"tested_on": "BT-549"}, "CAKI-1": {"tested_on": "CAKI-1"}, "CCRF-CEM": {"tested_on": "CCRF-CEM"}, "COLO 205": {"tested_on": "COLO 205"}, "DU-145": {"tested_on": "DU-145"}, "EKVX": {"tested_on": "EKVX"}, "HCC 2998": {"tested_on": "HCC 2998"}, "HCT-116": {"tested_on": "HCT-116"}, "HCT-15": {"tested_on": "HCT-15"}, "HL-60": {"tested_on": "HL-60"}, "HOP-92": {"tested_on": "HOP-92"}, "Hs-578T": {"tested_on": "Hs-578T"}, "IGROV-1": {"tested_on": "IGROV-1"}, "KM12": {"tested_on": "KM12"}, "LOX IMVI": {"tested_on": "LOX IMVI"}, "M14": {"tested_on": "M14"}, "MCF7": {"tested_on": "MCF7"}, "MDA-MB-231": {"tested_on": "MDA-MB-231"}, "MDA-MB-435": {"tested_on": "MDA-MB-435"}, "MDA-N": {"tested_on": "MDA-N"}, "MOLT-4": {"tested_on": "MOLT-4"}, "Malme-3M": {"tested_on": "Malme-3M"}, "NCI-H23": {"tested_on": "NCI-H23"}, "NCI-H460": {"tested_on": "NCI-H460"}, "NCI-H522": {"tested_on": "NCI-H522"}, "NCI/ADR-RES": {"tested_on": "NCI/ADR-RES"}, "OVCAR-3": {"tested_on": "OVCAR-3"}, "OVCAR-4": {"tested_on": "OVCAR-4"}, "OVCAR-5": {"tested_on": "OVCAR-5"}, "OVCAR-8": {"tested_on": "OVCAR-8"}, "PC-3": {"tested_on": "PC-3"}, "RPMI-8226": {"tested_on": "RPMI-8226"}, "SF-268": {"tested_on": "SF-268"}, "SF-295": {"tested_on": "SF-295"}, "SF-539": {"tested_on": "SF-539"}, "SK-MEL-28": {"tested_on": "SK-MEL-28"}, "SK-MEL-2": {"tested_on": "SK-MEL-2"}, "SK-MEL-5": {"tested_on": "SK-MEL-5"}, "SK-OV-3": {"tested_on": "SK-OV-3"}, "SN12C": {"tested_on": "SN12C"}, "SNB-19": {"tested_on": "SNB-19"}, "SNB-75": {"tested_on": "SNB-75"}, "SW-620": {"tested_on": "SW-620"}, "T47D": {"tested_on": "T47D"}, "TK-10": {"tested_on": "TK-10"}, "U-251": {"tested_on": "U-251"}, "UACC-257": {"tested_on": "UACC-257"}, "UACC-62": {"tested_on": "UACC-62"}, "UO-31": {"tested_on": "UO-31"}},
  "note": "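Method: 48-hour compound exposure of cells in 96-well plates, five concentrations, linear interpolation of endpoints. At the GI50, growth is halved.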 The source made the active and inactive calls. No stated cut-off is given here; in the data, active = GI50 up to about 1.1 µM and inactive = higher.",
  "data": [
    {"molecule": "CC1=CCC(=O)[C@]2(C)C(CC(=O)O)[C@]3(C)C4=C(C)C(c5ccoc5)C[C@@H]4O[C@@H]3[C@H](O)[C@@H]12", "note": "(stereo partly drawn)", "values": [
      {"measurement": "GI50", "setting": "786-0", "result": "> 100 µM (inactive)"},
      {"measurement": "GI50", "setting": "A498", "result": "> 100 µM (inactive)"},
      {"measurement": "GI50", "setting": "A549", "result": "> 100 µM (inactive)"},
      {"measurement": "GI50", "setting": "ACHN", "result": "> 100 µM (inactive)"},
      {"measurement": "GI50", "setting": "BT-549", "result": "> 100 µM (inactive)"},
      {"measurement": "GI50", "setting": "CAKI-1", "result": "> 100 µM (inactive)"},
      {"measurement": "GI50", "setting": "CCRF-CEM", "result": "> 100 µM (inactive)"},
      {"measurement": "GI50", "setting": "COLO 205", "result": "> 100 µM (inactive)"},
      {"measurement": "GI50", "setting": "DU-145", "result": "> 100 µM (inactive)"},
      {"measurement": "GI50", "setting": "EKVX", "result": "> 100 µM (inactive)"},
      {"measurement": "GI50", "setting": "HCC 2998", "result": "> 100 µM (inactive)"},
      {"measurement": "GI50", "setting": "HCT-116", "result": "> 100 µM (inactive)"},
      {"measurement": "GI50", "setting": "HCT-15", "result": "> 100", "unit": "µM"},
      {"measurement": "GI50", "setting": "HL-60", "result": "> 100 µM (inactive)"},
      {"measurement": "GI50", "setting": "HOP-92", "result": "> 100 µM (inactive)"},
      {"measurement": "GI50", "setting": "Hs-578T", "result": "> 100 µM (inactive)"},
      {"measurement": "GI50", "setting": "IGROV-1", "result": "> 100 µM (inactive)"},
      {"measurement": "GI50", "setting": "KM12", "result": "> 100 µM (inactive)"},
      {"measurement": "GI50", "setting": "LOX IMVI", "result": "> 100 µM (inactive)"},
      {"measurement": "GI50", "setting": "M14", "result": "> 100 µM (inactive)"},
      {"measurement": "GI50", "setting": "MCF7", "result": "> 100 µM (inactive)"},
      {"measurement": "GI50", "setting": "MDA-MB-231", "result": "> 100 µM (inactive)"},
      {"measurement": "GI50", "setting": "MDA-MB-435", "result": "> 100 µM (inactive)"},
      {"measurement": "GI50", "setting": "MDA-N", "result": "> 100 µM (inactive)"},
      {"measurement": "GI50", "setting": "MOLT-4", "result": "> 100 µM (inactive)"},
      {"measurement": "GI50", "setting": "Malme-3M", "result": "> 100 µM (inactive)"},
      {"measurement": "GI50", "setting": "NCI-H23", "result": "> 100 µM (inactive)"},
      {"measurement": "GI50", "setting": "NCI-H460", "result": "> 100 µM (inactive)"},
      {"measurement": "GI50", "setting": "NCI-H522", "result": "> 100 µM (inactive)"},
      {"measurement": "GI50", "setting": "NCI/ADR-RES", "result": "> 100 µM (inactive)"},
      {"measurement": "GI50", "setting": "OVCAR-3", "result": "> 100 µM (inactive)"},
      {"measurement": "GI50", "setting": "OVCAR-4", "result": "> 100 µM (inactive)"},
      {"measurement": "GI50", "setting": "OVCAR-5", "result": "> 100 µM (inactive)"},
      {"measurement": "GI50", "setting": "OVCAR-8", "result": "> 100 µM (inactive)"},
      {"measurement": "GI50", "setting": "PC-3", "result": "> 100 µM (inactive)"},
      {"measurement": "GI50", "setting": "RPMI-8226", "result": "> 100 µM (inactive)"},
      {"measurement": "GI50", "setting": "SF-268", "result": "> 100 µM (inactive)"},
      {"measurement": "GI50", "setting": "SF-295", "result": "> 100 µM (inactive)"},
      {"measurement": "GI50", "setting": "SF-539", "result": "> 100 µM (inactive)"},
      {"measurement": "GI50", "setting": "SK-MEL-28", "result": "> 100 µM (inactive)"},
      {"measurement": "GI50", "setting": "SK-MEL-2", "result": "> 100 µM (inactive)"},
      {"measurement": "GI50", "setting": "SK-MEL-5", "result": "> 100 µM (inactive)"},
      {"measurement": "GI50", "setting": "SK-OV-3", "result": "> 100 µM (inactive)"},
      {"measurement": "GI50", "setting": "SN12C", "result": "> 100 µM (inactive)"},
      {"measurement": "GI50", "setting": "SNB-19", "result": "> 100 µM (inactive)"},
      {"measurement": "GI50", "setting": "SNB-75", "result": "> 100 µM (inactive)"},
      {"measurement": "GI50", "setting": "SW-620", "result": "> 100 µM (inactive)"},
      {"measurement": "GI50", "setting": "T47D", "result": "> 100 µM (inactive)"},
      {"measurement": "GI50", "setting": "TK-10", "result": "> 100 µM (inactive)"},
      {"measurement": "GI50", "setting": "U-251", "result": "> 100 µM (inactive)"},
      {"measurement": "GI50", "setting": "UACC-257", "result": "> 100 µM (inactive)"},
      {"measurement": "GI50", "setting": "UACC-62", "result": "> 100 µM (inactive)"},
      {"measurement": "GI50", "setting": "UO-31", "result": "> 100 µM (inactive)"}
    ]}
  ]
}
